Like-named read-outs stand apart in the source and are kept apart here. Where only a bound is given, the exact number is not on record here.

In series [1] the test system is recombinant NL4-3 virus (nef section replaced with Renilla luciferase gene) in MT-2 cells. Briefly: HIV cell culture assay (antiviral activity, luciferase readout). The series is classed as cell-based. The settings on record: Renilla, NL43, MT-2 cells infected for 4-5 days with recombinant NL4-3 Renilla luciferase virus. In short, it runs like this:
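The reporter virus was produced by transfecting 293T cells with the NL4-3 nef/Renilla luciferase proviral clone. MT-2 cells were infected for 4–5 days with serial compound dilutions present. Luciferase was read with a live-cell substrate, and EC50 came from the exponential median-effect equation.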

The nature of series [2]: Compound cytotoxicity, XTT-based colorimetric assay. It is filed as cell-based. The settings on record: human. In a few lines: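 Follows the antiviral assay procedure, but with uninfected MT2 cells. On day 4, cell viability is measured by XTT-based colorimetry, giving CC50 values.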
On the technique in general: Formazan colour is commonly taken as a measure of viable cells.

The mark [3] stands for this setting: uninfected MT2 cells, day 4, XTT, read-out: CC50.

A word on the EC50: it is the concentration needed to bring the measured effect to its halfway point. For orientation: CC50 means the concentration at which the toxic effect on the cells reaches its halfway point. With `Cc1cc(C2CCC(F)(F)CC2)nc2nc([C@H](Cc3cc(F)cc(F)c3)NC(=O)Cn3nc(C(F)F)c4c3C(F)(F)[C@@H]3C[C@H]43)n(-c3ccc(Cl)c4c(NS(C)(=O)=O)nn(CCOC(C)(C)C)c34)c(=O)c12` (atropisomer, axis not shown; (P)) [Example 129, N-[(1S)-1-[(3P)-3-{1-[2-(tert-butoxy)ethyl]-4-chloro-3-methanesulfonamido-1H-indazol-7-yl}-7-(4,4-difluorocyclohexyl)-5-methyl-4-oxo-3H,4H-pyrido[2,3-d]pyrimidin-2-yl]-2-(3,5-difluorophenyl)ethyl]-2-[(2S,4R)-9-(difluoromethyl)-5,5-difluoro-7,8-diazatricyclo[4.3.0.0^2,^4]nona-1(6),8-dien-7-yl]acetamide], in series [1], the EC50 worked out at 24 pM. The CC50 at 4 days in series [2] (setting [3]) was above 50000 pM.

Regarding `CS(=O)(=O)Nc1nn(CCN2CCOCC2)c2c(-n3c([C@H](Cc4cc(F)cc(F)c4)NC(=O)Cn4nc(C5CC5)c5c4C[C@@H]4C[C@H]54)nc4nc(C5CCC(F)(F)CC5)cc(C(F)F)c4c3=O)ccc(Cl)c12` [Example 227, N-[(1S)-1-[(3P)-3-{4-chloro-3-methanesulfonamido-1-[2-(morpholin-4-yl)ethyl]-1H-indazol-7-yl}-7-(4,4-difluorocyclohexyl)-5-(difluoromethyl)-4-oxo-3H,4H-pyrido[2,3-d]pyrimidin-2-yl]-2-(3,5-difluorophenyl)ethyl]-2-[(2S,4S)-9-cyclopropyl-7,8-diazatricyclo[4.3.0.0^2,^4]nona-1(6),8-dien-7-yl]acetamide], the EC50 in series [1] was found to be 16 pM. Moreover, in series [2] (setting [3]), the CC50 at 4 days is above 50000 pM.

As to `Cc1cc(C2(F)CCC(F)(F)CC2)nc2nc([C@H](Cc3cc(F)cc(F)c3)NC(=O)Cn3nc(C(F)F)c4c3C(F)(F)[C@@H]3C[C@H]43)n(-c3ccc(Cl)c4c(NS(C)(=O)=O)nn(CCN5C[C@H](C)OC(C)(C)C5)c34)c(=O)c12` (atropisomer, axis not shown; (P)) [Example 576], the 50% effective concentration (EC50) in series [1] came out at 10 pM. In addition, the CC50 at 4 days in series [2] (setting [3]) is above 20000 pM.

With `COCCCn1nc(NS(C)(=O)=O)c2c(Cl)ccc(-n3c([C@H](Cc4cc(F)cc(F)c4)NC(=O)Cn4nc(C(F)F)c5c4C(F)(F)[C@@H]4C[C@H]54)nc4nc(C5CCC(F)(F)CC5)cc(NCC5(C)CCOCC5)c4c3=O)c21` (atropisomer, axis not shown; (P)) [Example 485, N-[(1S)-1-[(3P)-3-[4-chloro-3-methanesulfonamido-1-(3-methoxypropyl)-1H-indazol-7-yl]-7-(4,4-difluorocyclohexyl)-5-{[(4-methyloxan-4-yl)methyl]amino}-4-oxo-3H,4H-pyrido[2,3-d]pyrimidin-2-yl]-2-(3,5-difluorophenyl)ethyl]-2-[(2S,4R)-9-(difluoromethyl)-5,5-difluoro-7,8-diazatricyclo[4.3.0.0^2,^4]nona-1(6),8-dien-7-yl]acetamide], the concentration giving a half-maximal response (EC50) in series [1] was 16 pM. In addition, the 50% cytotoxic concentration (CC50) at 4 days in series [2] (setting [3]) was above 20000 pM.

For the molecule `Cc1cc(C2CCC(F)(F)CC2)nc2nc([C@H](Cc3cc(F)cc(F)c3)NC(=O)Cn3nc(C4CC4)c4c3C[C@@H]3C[C@H]43)n(-c3ccc(Cl)c4c(NS(C)(=O)=O)nn(CCN5CC(C(F)F)C5)c34)c(=O)c12` (atropisomer, axis not shown; (P)) [Example 275], the EC50 in series [1] is 12 pM. Also, the 50% cytotoxic concentration (CC50) at 4 days in series [2] (setting [3]) is above 50000 pM.

Regarding `Cc1cc(C2CCC(F)(F)CC2)nc2nc([C@H](Cc3cc(F)cc(F)c3)NC(=O)Cn3nc(C4CC4)c4c3C[C@@H]3C[C@H]43)n(-c3ccc(Cl)c4c(NS(C)(=O)=O)nn(CCN5CCC(F)CC5)c34)c(=O)c12` (atropisomer, axis not shown; (P)) [Example 277, N-[(1S)-1-[(3P)-3-{4-chloro-1-[2-(4-fluoropiperidin-1-yl)ethyl]-3-methanesulfonamido-1H-indazol-7-yl}-7-(4,4-difluorocyclohexyl)-5-methyl-4-oxo-3H,4H-pyrido[2,3-d]pyrimidin-2-yl]-2-(3,5-difluorophenyl)ethyl]-2-[(2S,4S)-9-cyclopropyl-7,8-diazatricyclo[4.3.0.0^2,^4]nona-1(6),8-dien-7-yl]acetamide], the concentration for a half-maximal effect (EC50) in series [1] was 9 pM. In addition, the CC50 at 4 days in series [2] (setting [3]) is above 50000 pM.

As to `Cc1cc(C2CCC(F)(F)CC2)nc2nc([C@H](Cc3cc(F)cc(F)c3)NC(=O)Cn3nc(C4CC4)c4c3C[C@@H]3C[C@H]43)n(-c3ccc(Cl)c4c(NS(C)(=O)=O)nn(CCN5C[C@@H](F)C[C@H](F)C5)c34)c(=O)c12` (atropisomer, axis not shown; (P)) [Example 444, N-[(1S)-1-[(3P)-3-(4-chloro-1-{2-[(3S,5S)-3,5-difluoropiperidin-1-yl]ethyl}-3-methanesulfonamido-1H-indazol-7-yl)-7-(4,4-difluorocyclohexyl)-5-methyl-4-oxo-3H,4H-pyrido[2,3-d]pyrimidin-2-yl]-2-(3,5-difluorophenyl)ethyl]-2-[(2S,4S)-9-cyclopropyl-7,8-diazatricyclo[4.3.0.0^2,^4]nona-1(6),8-dien-7-yl]acetamide], the EC50 in series [1] amounted to 9 pM. Further, the CC50 at 4 days in series [2] (setting [3]) was above 20000 pM.

Turning to `Cc1cc(C2(F)CCC(F)(F)CC2)nc2nc([C@H](Cc3cc(F)cc(F)c3)NC(=O)Cn3nc(C(F)F)c4c3C(F)(F)[C@@H]3C[C@H]43)n(-c3ccc(Cl)c4c(NS(C)(=O)=O)nn(CCN5CC(C)(C)OC(C)(C)C5)c34)c(=O)c12` (atropisomer, axis not shown; (P)) [Example 501, N-[(1S)-1-[(3P)-3-{4-chloro-3-methanesulfonamido-1-[2-(2,2,6,6-tetramethylmorpholin-4-yl)ethyl]-1H-indazol-7-yl}-5-methyl-4-oxo-7-(1,4,4-trifluorocyclohexyl)-3H,4H-pyrido[2,3-d]pyrimidin-2-yl]-2-(3,5-difluorophenyl)ethyl]-2-[(2S,4R)-9-(difluoromethyl)-5,5-difluoro-7,8-diazatricyclo[4.3.0.0^2,^4]nona-1(6),8-dien-7-yl]acetamide], the EC50 in series [1] came out at 16 pM. In addition, in series [2] (setting [3]), the CC50 at 4 days is above 20000 pM.

With `COCCCn1nc(NS(C)(=O)=O)c2c(Cl)ccc(-n3c([C@H](Cc4cc(F)cc(F)c4)NC(=O)Cn4nc(C(F)F)c5c4C(F)(F)[C@@H]4C[C@H]54)nc4nc(C5CCC(F)(F)CC5)cc(NCCc5ccccc5)c4c3=O)c21` (atropisomer, axis not shown; (P)) [Example 521, N-[(1S)-1-[(3P)-3-[4-chloro-3-methanesulfonamido-1-(3-methoxypropyl)-1H-indazol-7-yl]-7-(4,4-difluorocyclohexyl)-4-oxo-5-[(2-phenylethyl)amino]-3H,4H-pyrido[2,3-d]pyrimidin-2-yl]-2-(3,5-difluorophenyl)ethyl]-2-[(2S,4R)-9-(difluoromethyl)-5,5-difluoro-7,8-diazatricyclo[4.3.0.0^2,^4]nona-1(6),8-dien-7-yl]acetamide], the half-maximal effective concentration (EC50) in series [1] is 79 pM. Moreover, the half-maximal cytotoxic concentration (CC50) at 4 days in series [2] (setting [3]) was above 20000 pM.

In the case of `COCCCn1nc(NS(C)(=O)=O)c2c(Cl)ccc(-n3c([C@H](Cc4cc(F)cc(F)c4)NC(=O)Cn4nc(C(F)F)c5c4C(F)(F)[C@@H]4C[C@H]54)nc4nc(C5CCC(F)(F)CC5)cc(CN5C[C@H]6C[C@@H](C5)O6)c4c3=O)c21` (atropisomer, axis not shown; (P)) [Example 531, N-[(1S)-1-[(3P)-3-[4-chloro-3-methanesulfonamido-1-(3-methoxypropyl)-1H-indazol-7-yl]-7-(4,4-difluorocyclohexyl)-5-{[(1R,5S)-6-oxa-3-azabicyclo[3.1.1]heptan-3-yl]methyl}-4-oxo-3H,4H-pyrido[2,3-d]pyrimidin-2-yl]-2-(3,5-difluorophenyl)ethyl]-2-[(2S,4R)-9-(difluoromethyl)-5,5-difluoro-7,8-diazatricyclo[4.3.0.0^2,^4]nona-1(6),8-dien-7-yl]acetamide], in series [1], the 50% effective concentration (EC50) was 21 pM. The half-maximal cytotoxic concentration (CC50) at 4 days in series [2] is above 20000 pM.

As to `COCCCn1nc(NS(C)(=O)=O)c2c(Cl)ccc(-n3c([C@H](Cc4cc(F)cc(F)c4)NC(=O)Cn4nc(C(F)F)c5c4C(F)(F)[C@@H]4C[C@H]54)nc4nc(C5CCC(F)(F)CC5)cc(NCCN5CCC6(CC5)CC6)c4c3=O)c21` (atropisomer, axis not shown; (P)) [Example 515, N-[(1S)-1-[(3P)-5-[(2-{6-azaspiro[2.5]octan-6-yl}ethyl)amino]-3-[4-chloro-3-methanesulfonamido-1-(3-methoxypropyl)-1H-indazol-7-yl]-7-(4,4-difluorocyclohexyl)-4-oxo-3H,4H-pyrido[2,3-d]pyrimidin-2-yl]-2-(3,5-difluorophenyl)ethyl]-2-[(2S,4R)-9-(difluoromethyl)-5,5-difluoro-7,8-diazatricyclo[4.3.0.0^2,^4]nona-1(6),8-dien-7-yl]acetamide], in series [1], the concentration giving a half-maximal response (EC50) is 16 pM. In addition, in series [2] (setting [3]), the CC50 at 4 days is above 20000 pM.

Take `Cc1cc(C2CCC(F)(F)CC2)nc2nc([C@H](Cc3cc(F)cc(F)c3)NC(=O)Cn3nc(C(F)F)c4c3C(F)(F)[C@@H]3C[C@H]43)n(-c3ccc(Cl)c4c(NS(C)(=O)=O)nn(CC(=O)N(C)[C@@H]5CCOC5)c34)c(=O)c12` (atropisomer, axis not shown; (P)) [Example 405, N-[(1S)-1-[(3P)-3-[4-chloro-3-methanesulfonamido-1-({methyl[(3R)-oxolan-3-yl]carbamoyl}methyl)-1H-indazol-7-yl]-7-(4,4-difluorocyclohexyl)-5-methyl-4-oxo-3H,4H-pyrido[2,3-d]pyrimidin-2-yl]-2-(3,5-difluorophenyl)ethyl]-2-[(2S,4R)-9-(difluoromethyl)-5,5-difluoro-7,8-diazatricyclo[4.3.0.0^2,^4]nona-1(6),8-dien-7-yl]acetamide]: the EC50 in series [1] was 34 pM. The half-maximal cytotoxic concentration (CC50) at 4 days in series [2] (setting [3]) was above 20000 pM.
